Reference: publication PMC3856571 (Journal of the American Chemical Society, 2013)
Numbered stars: 1 amine (or outer) side, 2 acyl side, 3 side chain; on linkers, the order of the positions; unused ones are H or OH. Bridge positions count the residues as written; N and C are the ends. Square brackets hold non-standard residues; d marks the D form. Peptide text beside a SMILES is read from it. Trimesoyl = O=C(c1cc(C(=O)[*:2])cc(C(=O)[*:3])c1)[*:1]; Phg = N[C@H](C(=O)O)c1ccccc1; Nle = CCCC[C@H](N)C(=O)O; Dap = NC[C@H](N)C(=O)O

Assays:
[1] = biological target: bovine serum albumin (BSA) (Bos taurus, UniProt P02769); test: Fluorescence anisotropy specificity test, BSA; assay type: binding
bovine serum albumin (BSA), sequence (P02769 25-607): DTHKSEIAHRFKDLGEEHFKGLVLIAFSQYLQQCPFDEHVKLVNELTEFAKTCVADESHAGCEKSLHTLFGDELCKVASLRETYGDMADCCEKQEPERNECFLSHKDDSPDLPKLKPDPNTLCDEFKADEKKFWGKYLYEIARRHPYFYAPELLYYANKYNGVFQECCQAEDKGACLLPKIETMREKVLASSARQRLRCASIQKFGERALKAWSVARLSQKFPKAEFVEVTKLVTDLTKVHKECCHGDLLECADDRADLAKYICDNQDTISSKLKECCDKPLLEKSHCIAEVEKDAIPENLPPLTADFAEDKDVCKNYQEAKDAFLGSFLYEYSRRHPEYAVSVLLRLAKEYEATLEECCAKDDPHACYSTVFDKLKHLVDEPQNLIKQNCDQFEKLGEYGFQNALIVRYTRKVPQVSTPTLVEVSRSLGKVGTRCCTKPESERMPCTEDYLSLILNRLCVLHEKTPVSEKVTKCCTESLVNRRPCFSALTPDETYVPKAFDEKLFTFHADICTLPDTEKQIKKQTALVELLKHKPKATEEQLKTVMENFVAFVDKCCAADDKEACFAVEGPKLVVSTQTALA

[2] = biological target: glutathione-S-transferase-PLCγ SH2 domain fusion (GST-SH2); test: Fluorescence anisotropy specificity test, GST-SH2; assay type: binding; settings: FA, Fig. S4
[3] = biological target: T1, protein phosphatase PTP1B (Homo sapiens, UniProt P18031); test: Fluorescence anisotropy specificity test, PTP1B; assay type: binding; settings: FA
T1 sequence (P18031 1-435): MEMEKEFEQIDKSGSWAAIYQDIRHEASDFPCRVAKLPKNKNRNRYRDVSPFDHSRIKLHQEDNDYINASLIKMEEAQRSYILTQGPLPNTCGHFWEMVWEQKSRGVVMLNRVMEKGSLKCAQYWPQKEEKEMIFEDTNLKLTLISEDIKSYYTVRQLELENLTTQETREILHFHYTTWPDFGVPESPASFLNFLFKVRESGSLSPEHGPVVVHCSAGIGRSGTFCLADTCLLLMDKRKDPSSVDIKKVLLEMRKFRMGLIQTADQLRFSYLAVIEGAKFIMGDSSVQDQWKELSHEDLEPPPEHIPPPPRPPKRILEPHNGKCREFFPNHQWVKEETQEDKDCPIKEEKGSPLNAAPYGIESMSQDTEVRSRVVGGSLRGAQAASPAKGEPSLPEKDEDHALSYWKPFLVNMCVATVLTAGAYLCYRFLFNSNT

HIV capsid protein = HIV capsid protein (Human immunodeficiency virus type 1 group M subtype B, UniProt P04591); test: Fluorescence anisotropy specificity test, HIV capsid protein; assay type: binding; settings: FA
WEHI-13VAR fibroblasts = assay type: cell-based
GST-BRCT fusion protein = settings: FA
TNFα = TNFα (Homo sapiens, UniProt P01375); test: Fluorescence anisotropy binding of resynthesized FITC-labeled peptides; settings: resynthesized FITC-labeled peptide, FA analysis, Fig. S3
TNFα, sequence (P01375 77-233 limits assumed): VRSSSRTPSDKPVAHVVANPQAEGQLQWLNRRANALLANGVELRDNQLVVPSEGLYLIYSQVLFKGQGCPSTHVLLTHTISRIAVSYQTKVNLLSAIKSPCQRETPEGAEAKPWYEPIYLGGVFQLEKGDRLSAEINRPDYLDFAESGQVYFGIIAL

C[C@H]1NC(=O)[C@H](Cc2ccc(O)cc2)NC(=O)[C@H](c2ccccc2)NC(=O)c2cc3cc(c2)C(=O)NC[C@@H](C(N)=O)NC(=O)[C@H](Cc2c[nH]cn2)NC(=O)[C@@H](CCCCN)NC(=O)CNC(=O)[C@@H](Cc2ccccc2)NC(=O)[C@H](Cc2ccc(O)cc2)NC(=O)[C@H](CCCCNC3=O)NC1=O [Anticachexin C1, bicyclo(Phg-Tyr-D-Ala-Lys-Tyr-D-Phe-Gly-D-Lys-His-Dap)] ([Phg]Y[dA]KY[dF]G[dK]H[Dap]-NH2; linker N-4-10 via Trimesoyl; C-terminus assumed)
Kd [1]: ~34 µM | KD for GST-SH2 [2]: not to any of the other proteins | binding to PTP1B [3]: not to any of the other proteins | binding to HIV capsid protein (HIV capsid protein): not to any of the other proteins | LD50 of TNFα in the presence of 50 μM Anticachexin C1 (WEHI-13VAR fibroblasts; TNFα 0-250 ng/mL, fixed 50 μM Anticachexin C1, MTT, Fig. S6): 1.8 ng/mL | protection of cells from TNFα-induced cell death (WEHI-13VAR fibroblasts; TNFα 0.04 ng/ml, actinomycin-D, peptide 0-25 μM, MTT, Fig. 4c): protected the cells from TNFα-induced cell death in a concentration-dependent manner | binding to GST-BRCT fusion protein (GST-BRCT fusion protein): not to any of the other proteins

CCCC[C@@H]1NC(=O)[C@@H]2CCCCNC(=O)c3cc(cc(c3)C(=O)N[C@@H](C)C(=O)N[C@H](Cc3ccccc3)C(=O)N[C@@H](Cc3c[nH]c4ccccc34)C(=O)N[C@H]([C@H](C)O)C(=O)N[C@@H](CCC(N)=O)C(=O)N2)C(=O)NC[C@@H](C(N)=O)NC(=O)[C@H](Cc2c[nH]cn2)NC(=O)[C@H](C)NC(=O)[C@@H](CC(C)C)NC1=O [Anticachexin C2, bicyclo(Ala-D-Phe-Trp-D-Thr-Gln-Lys-Nle-D-Leu-Ala-His-Dap)] (A[dF]W[dT]QK[Nle][dL]AH[Dap]-NH2; linker N-6-11 via Trimesoyl; C-terminus assumed)
Kd [1]: 7.4 µM | Kd ([2]; read-out: KD for GST-SH2): 1.5 µM

Bicyclo(Arg-Arg-Arg-Arg-Nal-Phe-Dap-Ser-D-Val-Pro-pTyr-His-Dap)
KD for TNFα (TNFα): no detectable binding

TNFα
LD50 of TNFα in the absence of TNFα inhibitor (WEHI-13VAR fibroblasts; TNFα 0-250 ng/mL, MTT, Fig. S6): 0.46 ng/mL
